The assay deals with test plant species. The assay can be described thus: Post-emergent herbicidal activity test (greenhouse, foliar spray, visual growth reduction). As to conditions: post-emergence, 336 h, 140 g ai/ha. The format is in vivo. Summed up:
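Seedlings were raised 7-21 d in a greenhouse under a 15 h photoperiod until the first or second true leaf. Each compound, dissolved in acetone:DMSO 97:3 and diluted into a surfactant-containing spray mixture, was then applied at 187 L/ha. Plants were subirrigated, and growth reduction was scored visually at 14 d.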

[1] abbreviates: ECHCG: barnyardgrass (Echinochloa crus-galli), 14 days after application, read-out: Visual Growth Reduction (%) 14 Days After Application, ECHCG.
[2] abbreviates: IPOHE: ivy-leaf morning glory (Ipomoea hederacea), 14 days after application, read-out: Visual Growth Reduction (%) 14 Days After Application, IPOHE.
Setting [3] is: KCHSC: kochia (Bassia scoparia), 14 days after application, read-out: Visual Growth Reduction (%) 14 Days After Application, KCHSC.
[4] abbreviates: ORYSA: rice (Oryza sativa), 14 days after application, read-out: Visual Growth Reduction (%) 14 Days After Application, ORYSA.
Where [5] appears, read: SETFA: giant foxtail (Setaria faberi), 14 days after application, read-out: Visual Growth Reduction (%) 14 Days After Application, SETFA.
[6] abbreviates: SORVU: grain sorghum (Sorghum vulgare), 14 days after application, read-out: Visual Growth Reduction (%) 14 Days After Application, SORVU.
[7] abbreviates: STEME: common chickweed (Stellaria media), 14 days after application, read-out: Visual Growth Reduction (%) 14 Days After Application, STEME.
[8] abbreviates: TRZAS: wheat, spring (Triticum aestivum), 14 days after application, read-out: Visual Growth Reduction (%) 14 Days After Application, TRZAS.
[9] abbreviates: blackgrass (Alopecurus myosuroides), 14 Days After Application, read-out: Visual Growth Reduction (%) ALOMY.
[10] abbreviates: canada thistle (Cirsium arvense), 14 Days After Application, read-out: Visual Growth Reduction (%) CIRAR.
Setting [11] is: crabgrass (Digitaria sanguinalis), 14 Days After Application, read-out: Visual Growth Reduction (%) DIGSA.
Setting [12] is: lambsquarters (Chenopodium album), 14 Days After Application, read-out: Visual Growth Reduction (%) CHEAL.
The mark [13] stands for this setting: redroot pigweed (Amaranthus retroflexus), 14 Days After Application, read-out: Visual Growth Reduction (%) AMARE.
Where [14] appears, read: wild oat (Avena fatua), 14 Days After Application, read-out: Visual Growth Reduction (%) AVEFA.
The mark [15] stands for this setting: yellow nutsedge (Cyperus esculentus), 14 Days After Application, read-out: Visual Growth Reduction (%) CYPES.

Structures are written as SMILES. Like-named read-outs stand apart in the source and are kept apart here.

Regarding `COC(=O)c1nc(-c2ccc(O)cc2Cl)ccc1Cl` [F355, methyl 3-chloro-6-(2-chloro-4-hydroxyphenyl)picolinate], the pest or weed control at 140 g/ha under setting [1] fell in the range of 0 to 29%; the pest or weed control at 140 g/ha under setting [2] fell in the range of 0 to 29%; the pest or weed control at 140 g/ha under setting [3] fell in the range of 0 to 29%; the pest or weed control at 140 g/ha under setting [4] is 0 to 29%; the pest or weed control at 140 g/ha under setting [5] was in the range of 0 to 29%; the pest or weed control at 140 g/ha under setting [6] was 0 to 29%. The pest or weed control at 140 g/ha runs as follows: under setting [7], 0 to 29%; under setting [8], 0 to 29%; under setting [9], 0 to 29%; under setting [10], 75 to 84%; under setting [11], 0 to 29%; under setting [12], 0 to 29%. Also, the pest or weed control at 140 g/ha is, setting by setting: under setting [13], 0 to 29%; under setting [14], 0 to 29%; under setting [15], 0 to 29%.
`COc1cc2c(cc1-c1ccc(Cl)c(C(=O)O)n1)OC(F)(F)O2` [F356, 3-Chloro-6-(2,2-difluoro-6-methoxybenzo[d][1,3]dioxol-5-yl)picolinic acid]: the pest or weed control at 140 g/ha by setting is: under setting [1], 0 to 29%; under setting [2], 95 to 100%; under setting [3], 0 to 29%; under setting [4], 0 to 29%; under setting [5], 0 to 29%; under setting [6], 30 to 44%. Besides, the pest or weed control at 140 g/ha lay within 0 to 29% under setting [7]; 0 to 29% under setting [8]; 0 to 29% under setting [9]; 0 to 29% under setting [10]; 0 to 29% under setting [11]; 60 to 74% under setting [12]. The pest or weed control at 140 g/ha fell in the range of 0 to 29% under setting [13], 0 to 29% under setting [14] and 0 to 29% under setting [15].
As to `COC(=O)c1nc(-c2ccc(C=O)c(F)c2OC)c(F)cc1Cl` [F357, methyl 3-chloro-5-fluoro-6-(3-fluoro-4-formyl-2-methoxyphenyl)picolinate], the pest or weed control at 140 g/ha was in the range of 0 to 29% under setting [1]; 0 to 29% under setting [2]; 0 to 29% under setting [3]; 0 to 29% under setting [4]; 0 to 29% under setting [5]; 0 to 29% under setting [6]. The pest or weed control at 140 g/ha is 0 to 29% under setting [7]; 0 to 29% under setting [8]; 0 to 29% under setting [9]; 0 to 29% under setting [10]; 0 to 29% under setting [11]; 0 to 29% under setting [12]. Moreover, the pest or weed control at 140 g/ha lay in the range of 0 to 29% under setting [13], 0 to 29% under setting [14] and 0 to 29% under setting [15].
In the case of `COC(=O)c1nc(-c2ccc(N)cc2Cl)c(F)cc1Cl` [F358, Methyl 6-(4-amino-2-chlorophenyl)-3-chloro-5-fluoropicolinate], the pest or weed control at 140 g/ha runs as follows: under setting [1], 0 to 29%; under setting [2], 0 to 29%; under setting [3], 0 to 29%; under setting [4], 0 to 29%; under setting [5], 0 to 29%; under setting [6], 0 to 29%. For the same compound, the pest or weed control at 140 g/ha is, setting by setting: under setting [7], 0 to 29%; under setting [8], 0 to 29%; under setting [9], 0 to 29%; under setting [10], 0 to 29%; under setting [11], 0 to 29%; under setting [12], 0 to 29%. In addition, the pest or weed control at 140 g/ha by setting is: under setting [13], 0 to 29%; under setting [14], 0 to 29%; under setting [15], 0 to 29%.
`COC(=O)c1nc(-c2cc(F)c(C(F)(F)F)cc2OC)c(F)cc1Cl` [F359, Methyl 3-chloro-5-fluoro-6-(5-fluoro-2-methoxy-4-(trifluoromethyl)phenyl)picolinate]: the pest or weed control at 140 g/ha runs as follows: under setting [1], 95 to 100%; under setting [2], 95 to 100%; under setting [3], 85 to 94%; under setting [4], 0 to 29%; under setting [5], 95 to 100%; under setting [6], 85 to 94%. Also, the pest or weed control at 140 g/ha is, setting by setting: under setting [7], 0 to 29%; under setting [8], 60 to 74%; under setting [9], 30 to 44%; under setting [10], 75 to 84%; under setting [11], 30 to 44%; under setting [12], 95 to 100%. The pest or weed control at 140 g/ha was 95 to 100% under setting [13], 75 to 84% under setting [14] and 0 to 29% under setting [15].
With `COC(=O)c1nc(-c2cc(C)c(C(F)(F)F)cc2F)c(F)cc1Cl` [F360, Methyl 3-chloro-5-fluoro-6-(2-fluoro-5-methyl-4-(trifluoromethyl)phenyl)picolinate], the pest or weed control at 140 g/ha is, setting by setting: under setting [1], 0 to 29%; under setting [2], 95 to 100%; under setting [3], 45 to 59%; under setting [4], 0 to 29%; under setting [5], 0 to 29%; under setting [6], 0 to 29%. In addition, the pest or weed control at 140 g/ha fell in the range of 0 to 29% under setting [7]; 0 to 29% under setting [8]; 0 to 29% under setting [9]; 0 to 29% under setting [10]; 0 to 29% under setting [11]; 95 to 100% under setting [12]. For the same compound, the pest or weed control at 140 g/ha was 95 to 100% under setting [13], 0 to 29% under setting [14] and 0 to 29% under setting [15].
Turning to `COC(=O)c1nc(-c2cc(C)c(C(F)(F)F)cc2F)ccc1Cl` [F361, Methyl 3-chloro-6-(2-fluoro-5-methyl-4-(trifluoromethyl)phenyl)picolinate], the pest or weed control at 140 g/ha lay within 0 to 29% under setting [1]; 75 to 84% under setting [2]; 0 to 29% under setting [3]; 0 to 29% under setting [4]; 0 to 29% under setting [5]; 0 to 29% under setting [6]. Besides, the pest or weed control at 140 g/ha is 0 to 29% under setting [7]; 0 to 29% under setting [8]; 0 to 29% under setting [9]; 0 to 29% under setting [10]; 0 to 29% under setting [11]; 85 to 94% under setting [12]. Further, the pest or weed control at 140 g/ha is 45 to 59% under setting [13], 0 to 29% under setting [14] and 0 to 29% under setting [15].
In the case of `COC(=O)c1nc(-c2cc(F)c(C(F)(F)F)cc2OC)ccc1Cl` [F362, Methyl 3-chloro-6-(5-fluoro-2-methoxy-4-(trifluoromethyl)phenyl)picolinate], the pest or weed control at 140 g/ha under setting [1] fell in the range of 0 to 29%; the pest or weed control at 140 g/ha under setting [2] fell in the range of 95 to 100%; the pest or weed control at 140 g/ha under setting [3] fell in the range of 30 to 44%; the pest or weed control at 140 g/ha under setting [4] was in the range of 0 to 29%; the pest or weed control at 140 g/ha under setting [5] was 60 to 74%; the pest or weed control at 140 g/ha under setting [6] lay within 85 to 94%. Also, the pest or weed control at 140 g/ha is, setting by setting: under setting [7], 0 to 29%; under setting [8], 0 to 29%; under setting [9], 0 to 29%; under setting [10], 0 to 29%; under setting [11], 45 to 59%; under setting [12], 85 to 94%. The pest or weed control at 140 g/ha reads like this: under setting [13], 95 to 100%; under setting [14], 0 to 29%; under setting [15], 0 to 29%.

Values taken from patent US20230017045A1, “PYRIDINE AND PYRIMIDINE CARBOXYLATE HERBICIDES AND METHODS OF USE THEREOF” (Dow AgroSciences LLC, priority 2017, published 2023).
